Patent US9205137B2, “Maturation of gastrointestinal tract” (ANARA AB, priority 2010, dated 2015)

What was measured:
14-d-old rat pups [1] = assay: Small intestine length and weight, Creon with anti-inflammatory drug pre-treatment, Example 2; type: in vivo; conditions: for Small intestine Distal wt / Small intestine Length / Small intestine Proximal wt: drug 0.01 mg/g b.wt per day, then water (no Creon)
Method: (§1) In both of the following experiments 14-d-old pups were weighed and divided into groups and further to subgroups depending on the aim of each experiment. Pups were fed intragastrically via a feeding tube (0.96 mm outer diameter, PE50, Becton Dickinson, Sparks, Md., USA), in a volume 0.01 mL/g b.wt. The dose(s) for each pup was repeated once daily in corresponding manner for three days (14, 15, 16-d-old).
(§2) At 17 days of age, all the pups were separated from their dams and then anesthetized by a subcutaneous injection of a mixture of Azaperone® (Stresnil; Janssen Pharmaceutica, Beerse, Belgium), 30 μg/g body weight (b.wt), and Ketamine® (Ketalar; Pfizer, New York, N.Y., USA), 170 μg/g b.wt. Once sure of anesthesia, the abdomen and thorax were then opened, euthanized via heart puncture. The small intestine was, after it was dissected out, length measured and then divided into two equally long proximal and distal parts, both of which were flashed with cold saline followed by a measurement of each one's weight. A 2 cm piece was collected from the midsection of the distal part and fixed in bouin's solution for 24 hr at room temperature for morphological changes measurements, while the rest parts of it were immediately frozen on dry ice and stored for functional analysis.
In order to compensate for individual variations in BW, the organ measurements are presented per g BW. All data are presented as mean values and standard deviations. Statistical comparisons between all groups were carried out using a one-way ANOVA analysis (SigmaStat 2.0; Jandel Scientific, San Rafael, Calif., USA) with all pairwise multiple-comparison procedures (Student Newman-Keuls method). Differences were considered to be significant when P<0.05.
(§3) The 2nd exp. includes four litters; all pups (n=36) were randomly divided into two groups (Creon: 150 mg of capsule (lipase 10 000 USP, potease 37 500 USP, amylase 33 200 USP and water), the dose of Creon was 1.5 mg/g b.wt), then each group divided into subgroup pretreated one hour prior to enzyme feeding with anti-inflammatory drugs, Ibuprofen or Celecoxib (celecoxib; Pfizer, New York, N.Y., USA) the dose of drugs was 0.01 mg/g b.wt per day for both, diluted to give volume 0.01 mL/g b.wt. Thus six groups were obtained water/water, Ibupofen/water, Celecoxib/water, water/Creon, Ibuprofen/Creon and Celecoxib/Creon.

14-d-old rat pups [2] = assay: Disaccharidase activity in distal intestinal homogenates, Creon with drug pre-treatment, Example 2; type: in vivo; conditions: for Disaccharidase specific activity, Lactase / Disaccharidase specific activity, Maltase / Disaccharidase specific activity, Sucrase: drug alone, then water (no Creon), distal part
Method: as §1, §2
The distal part of the small intestine was homogenized in cold 0.9% NaCl (1:10 w/v). Then, the disaccharidase activities were measured by the Dahlqvist A method, by incubating the homogenates with the appropriate disaccharide for 1 h at 37° C., thereafter the liberated glucose was measured by using a glucose oxidase reagent (Sigma chemicals), as described in Dahlqvist, A, in 1984 (Assay of intestinal disaccharidases, Scand J Clin Lab Invest, 1984; 44: 169-172).
The protein contents were determined by the method of Lowry et al (Lowry O H, Rosebrough N J, Farr A L & Randall R J Protein measurement with the Folin phenol reagent, J Biol Chem; 1951:193, 265-275.), modified for 96-well microplates as described in Pierzynowsk et al (Pierzynowsk S G, Westrom B R, Svendsen J & Karlsson B W. Development of exocrine pancreas function in chronically cannulated pigs during 1-13 weeks of postnatal life. J Pediatr Gastroenterol Nutr 1990; 10:206-212), and using serial dilutions of BSA (Sigma chemicals) as a standard.
as §3

[3] = cited from earlier work
14-d-old rat pups [4] = assay: Morphometry of mature enterocytes along villi, Creon with drug pre-treatment, Example 2; type: in vivo; conditions: for Mature epithelium: drug 0.01 mg/g b.wt per day, then water (no Creon)
Method: as §1, §2
All the samples from the distal SI were embedded into paraffin, cut laterally into […] thick sections, deparaffinated, and stained with hematoxylin and eosin according to standard procedures. All the samples were then imaged by using an Olympus PROVIS microscope (objective ×10) utilizing an Olympus DP50 camera (Olympus, Tokyo, Japan). Morphomertic analysis by measuring the ratio of the length of the adult-like epithelium to whole villi length was done by using ImageJ 1.36 program (National Institute of Health, Bethesda, Md.). […]

suckling rats [5] = assay: Set I: brush-border disaccharidase activity in proximal SI, Example 3; type: in vivo, Rattus norvegicus; conditions: proximal part of SI, in words (FIG. 5)
Method: The proximal samples of the SI were de-frozen and weighted and then homogenized with 9 parts of 0.9% NaCl (9 w/v). The homogenates (50 μl diluted samples) were incubated with the appropriate disaccharide (50 μl of 0.056M sucrose, maltose and lactose) for 1 hour at 37° C. After this, the liberated glucose was determined by adding glucose oxidase reagent (Sigma Chemicals), and incubated for 30 minutes. Then samples were transferred into the 96-well plate in triplication and the absorbance was measured at 450 nm. To measure the protein contents of the homogenates, Lowry method, was used, where BSA (Bovine Serum Albumin) was used as a standard. The results are presented as specific activity units per mg of protein (u/mg).

suckling rats [6] = assay: Set I: plasma concentration of marker molecules BSA and BIgG (macromolecule absorption), Example 3; type: in vivo, Rattus norvegicus; conditions: 3 hours after marker feeding, day 17, in words (FIG. 6)
Description: The plasma level of marker molecules was quantified by using immunoassay rocket electrophoresis and SRI (single radial immunodiffusion) for plasma BSA and BIgG respectively.

suckling rats [7] = assay: Set I: intestinal morphology of distal SI, Example 3; type: in vivo, Rattus norvegicus; conditions: distal part of SI, day 17
Method: All samples collected for histology were fixed with Bouin's solution for 24 hours and then stored in 70% ethanol, dehydrated, embedded into the paraffin and then cut into sections with 5 μm thickness. The tissue sections were transferred onto the slides, rehydrated and stained with H&E according to the standard technique. After mounting under cover slips samples were examined using light microscopy to estimate ratio between total length of the villus and length of the adult type enterocytes using ImageJ program.

suckling rats [8] = assay: Set I: body weight, GI and lymphoid organ weights, stomach pH after individual enzymes or mixture, Example 3; conditions: day 17
Method: All experiments were performed in young suckling rats by feeding them from 14 days of age via stomach tube for 3 continuous days (ones a day). One day after last treatment rats were euthanized and plasma and organs proceeded to study structural and functional changes of gastrointestinal system.
The pups were kept with their dam until dissection day (day 17).
In this set suckling pups were divided into five groups; control (water) amylase 10 000 USP/rat/day, lipase 4 000 USP/rat/day, protease 15 000 USP/rat/day, and mixture of these enzyme with corresponding activities per rat and day. This study was evaluating the effects of different pancreatic-like enzymes on the gut maturation and functioning and had 3 individual litters; n=12, n=10 and n=13, totally n=7 pups per each group. Each of the enzymes (Amylase, Protease and Lipase) (Sigma Aldrich) was available in the powder form and was resolved in distilled water prior to stomach feeding during days 14, 15 and 16. The volume of administered enzymes and distilled water (for control groups) was 0.01 ml/g BW. Each time, prior to the feeding procedure, the pups were weighed. […] Then 3 hours later, the pups were sedated with CO2 and anaesthetized by subcutaneous injection with a mixture of ketamine (Ketalar®, Pfizer, New York, USA, NaCl and azaperone (Stresnil®, Janssen Pharmaceutica, Beerse, Belgium), 0.01 ml/g BW. After opening the abdomen of the rats, 1 ml of blood was collected from heart by using syringes containing protease inhibitor and EDTA (50 μl) as anticoagulant and was transferred into ice-chilled tubes. After this, the pancreas was immediately dissected and rinsed with cold 0.9% NaCl, weighted and stored at −70 C. The SI was removed and its length was measured then divided into two halves, proximal and distal. Each segment was flushed out with cold 0.9% NaCl to clean the lumen and was then weighed separately. […] The stomach was removed and its content was collected into the tube (for measuring its pH) and frozen. Then cecum was dissected out, opened, rinse and weighed as well as liver and lymphoid organs spleen and thymus were dissected and weighted.
The contents of the stomach were de-frozen and then resolved with 1 ml of cold 0.9% NaCl. After resolving, they were centrifuged and the pH was measured in the supernatant using pH-meter.
All data are presented as mean±standard deviation (SD). Statistical comparisons between each group and control group were performed using the t-test. Results were considered as significant when P<0.05.

[9] = drug one hour prior to Creon, in words

Cc1ccc(-c2cc(C(F)(F)F)nn2-c2ccc(S(N)(=O)=O)cc2)cc1 [Celexosib, Celecoxib]
Small intestine Distal wt (14-d-old rat pups [1]): 14.45 ^A mg/g bwt | Small intestine Length (14-d-old rat pups [1]): 1.64 cm/g bwt | Small intestine Proximal wt (14-d-old rat pups [1]): 16.32 ^A mg/g bwt | Disaccharidase specific activity, Lactase (14-d-old rat pups [2]): 100.91 U/mg | Disaccharidase specific activity, Maltase (14-d-old rat pups [2]): 72.24 ^A U/mg | Disaccharidase specific activity, Sucrase (14-d-old rat pups [2]): 1.28 ^A U/mg | half life [3]: 12 h | Mature epithelium (14-d-old rat pups [4]): 7.98^A %

CC(C)Cc1ccc(C(C)C(=O)O)cc1 (centres unmarked) [Ibuprofen]
Small intestine Distal wt (14-d-old rat pups [1]): 13.81 ^A mg/g bwt | Small intestine Length (14-d-old rat pups [1]): 1.60 cm/g bwt | Small intestine Proximal wt (14-d-old rat pups [1]): 16.24 ^A mg/g bwt | effect of drug pre-treatment on the effect of Creon on intestinal weight and length (14-d-old rat pups [1]; [9]): could not be cancelled | Disaccharidase specific activity, Lactase (14-d-old rat pups [2]): 114.17 U/mg | Disaccharidase specific activity, Maltase (14-d-old rat pups [2]): 82.75 ^A U/mg | Disaccharidase specific activity, Sucrase (14-d-old rat pups [2]): 1.12 ^A U/mg | effect of drug pre-treatment on disaccharidases activities under Creon (14-d-old rat pups [2]; [9]): unaffected | Mature epithelium (14-d-old rat pups [4]): 8.78^A % | effect of drug pre-treatment on mature cells (morphometric analysis) under Creon (14-d-old rat pups [4]; [9]): unaffected

Lipase from B. cepacia
lactase activity (suckling rats [5]): higher | maltase activity (suckling rats [5]): stayed in a lower level | sucrase activity (suckling rats [5]): stayed in a lower level | uptake of marker molecule BIgG to plasma (suckling rats [6]): remained in a higher level | uptake of marker molecule BSA to plasma (suckling rats [6]): remained in a higher level | foetal-type epithelium with vacuolated enterocytes along the villi (suckling rats [7]): 77% | Body weight (suckling rats [8]; 3 days treatment): 36.8 ± 2.2 gr | Cecum (suckling rats [8]; 3 days treatment): 2.4 ± 0.4 mg/g BW | Distal SI (suckling rats [8]; 3 days treatment): 15.2 ± 0.9 mg/g BW | Liver (suckling rats [8]; 3 days treatment): 34.5 ± 1.8 mg/g BW | Pancreas (suckling rats [8]; 3 days treatment): 3.7 ± 0.5 mg/g BW | Proximal SI (suckling rats [8]; 3 days treatment): 17.5 ± 1.7 mg/g BW | SI length (suckling rats [8]; 3 days treatment): 1.5 ± 0.1 cm/g BW | Spleen (suckling rats [8]; 3 days treatment): 3.5 ± 0.4 mg/g BW | Stomach (suckling rats [8]; 3 days treatment): 6.9 ± 0.8 mg/g BW | Thymus (suckling rats [8]; 3 days treatment): 4.9 ± 0.8 mg/g BW | pH (suckling rats [8]; stomach contents): 4.0 ± 0.3
